Assay results reported in patent US20210222105A1, “A Microfluidic Cartridge, A Kit And An Assay” (CENTRE FOR CELLULAR AND MOLECULAR PLATFORMS, priority 2018, published 2021).

Key:
Assay type in all cases: cell-based, Escherichia coli
E. coli ATCC 25922 = test: Agent susceptibility phenotypic assay, microfluidic cartridge compared with 96 well plate; settings: 0.5, 1, 2 and 4 μg/ml tested; 0.5 MCF inoculum; cation adjusted Muller Hinton broth; FIG. 14
Method: The agent susceptibility assay was carried out in a microfluidic cartridge. This assay was also carried out in a micro-titer plate as a standard reference control. Bacterial/clinical sample grown at suitable turbidity or at least about 0.3 to about 1.0 McFarland unit was transferred to the microchamber. The microchamber had microbial growth sensors (pH sensor) at concentration of about 5 μM to about 50 μM, cation adjusted Muller Hinton broth or suitable microbial growth media, and antibiotics concentration based on CLSI guidelines. The total reaction volume range was from about 6 μl to about 150 μl. Plate/test card were sealed using plate sealer or lamination film and incubated at about 32° C. to about 37° C., at about 300-500 rpm orbital shaking. The change in the fluorescence intensity of pH sensors was measured using fluorescence reader after every 20-60 minutes till about 4-7 hours incubation period. Thus, the susceptibility or resistance of the microorganism was assessed towards the agent.
Agent susceptibility was tested on microfluidic cartridge and the outcome compared with optimized 96 well plate. Phenotypic assay was optimized on 96 well pate, briefly, an overnight grown E. coli ATCC25922 culture was dispersed in cation adjusted muller Hinton broth to prepare inoculum of 0.5 MCF unit.

[1] = test system: E. coli ATCC 25922 QC strain; test: Qualitative phenol red colour-change test of microbial growth in microfluidic cartridge and 96 well plate; settings: 37° C., results in 3 hour, FIG. 15
Method: Qualitative test was performed to check microbial growth in the microfluidic cartridge. Phenol red (about 0.05% w/v) containing cation adjusted Muller Hinton broth was used as susceptibility indicator. Microbial growth changes pH and Phenol red changes color with pH variation. Thus, a colour change could provide a read-out on the susceptibility or resistance of a microorganism. No color change would indicate no growth as a response to antibiotics. Briefly, microfluidic cartridge was cleaned with water and then rinsed with 70% ethanol and then UV sterilized by exposing under UV light for about 30 minutes. To compare the susceptibility test preformed on the microfluidic cartridge and 96 well plate, master mix of about 150 μl was prepared on 96 well plate and 6 μl o the master mix was used in microchamber of the microfluidic cartridge. Both 96 well plate and microfluidic cartridge was sealed with lamination film and incubated at 37° C. and change in color intensity was recorded (illustrated in FIG. 15). […] The results were obtained in 3 hour and design of the microfluidic cartridge was suitable for microbial growth and no cross contamination was observed.

E. coli = test: Agent susceptibility test in microfluidic cartridge with DNA-based pH sensor (FRET, donor fluorescence); settings: 5×10^5 CFU/ml, 37° C., up to 6 hour incubation, FIGS. 17, 19
Method: About 5 μM sensor was prepared and stored at about 4° C. overnight for equilibration of the sensors. Overnight grown cultures of E. coli, S. aureus, E. faecalis was picked from LB agar plate and dispersed in cation adjusted Mueller Hinton broth with 1% glucose. The concentration of the cells were adjusted to 0.5 MFU. antibiotic dilution was prepared according to CSI guidelines. Stock solutions were prepared in 96 well plate using 23 μl of cation adjusted Muller Hinton broth, 25 μl of desired concentration of antibiotic and 2 μl of 5 μM sensors. Then 50 μl of 1×10^6 CFU/ml inoculum was added in wells to achieve inoculum size 5×10^5 CFU/ml in final assay volume. Each stock solution was loaded on microfluidic cartridge. Microfluidic cartridge was sealed with polypropylene sealing film and incubated at 37° C. with 70% humidity. The change in the donor fluorescence intensity was recorded till 6 hour incubation. Each microchamber of the microfluidic cartridge was image using 1×73 Olympus inverted fluorescence microscope. Images were analyzed using ImageJ version 1.8.0. the average was taken over replicate and standard deviation was calculated (illustrated in FIG. 18).

SMILES | amikacin concentration at which E. coli ATCC 25922 showed susceptibility (E. coli ATCC 25922) | change in colour of indicator dye (phenol red) ([1]; amikacin concentration above 2 μg/ml) | change in colour of indicator dye (phenol red) ([1]; at 0.5 and 1 ug/ml amikacin) | sensitivity cut of value (E. coli)
NCC[C@H](O)C(=O)N[C@@H]1C[C@H](N)[C@@H](O[C@H]2O[C@H](CN)[C@@H](O)[C@H](O)[C@H]2O)[C@H](O)[C@H]1O[C@H]1O[C@H](CO)[C@@H](O)[C@H](N)[C@H]1O [amikacin] | 2 µg/mL | no change in the color intensity | change in the color of indicator dye | 
CCN1CCN(C(=O)N[C@@H](C(=O)N[C@@H]2C(=O)N3[C@@H]2SC(C)(C)[C@@H]3C(=O)O)c2ccccc2)C(=O)C1=O [piperacillin] |  |  |  | about 2 μg/ml
